Laboratory results published in patent US20060069132A1, “Azolecarboxamide herbicides” (priority 2004, published 2006).
Like-named read-outs stand apart in the source and are kept apart here.

Columns and labels:
giant foxtail [1] = experiment: Test C pre-/postemergence herbicide test; format: in vivo, Setaria faberi; conditions: for Foxtail, Giant plant response rating: Preemergence, scale 0 to 100, 0 no effect, 100 complete control
Method in brief: (§1)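 Visual injury scores run from 0 (no effect) to 100 (complete control), assessed relative to untreated controls 12 to 14 days after treatment in the greenhouse. Chemicals were formulated in a non-phytotoxic solvent mixture with surfactant and applied to soil after planting or to emerged plants at the 1- to 4-leaf stage.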

redroot pigweed = experiment: Test A pre-/postemergence herbicide test; format: in vivo, Amaranthus retroflexus; conditions: for pest or weed control at 500 g/ha / pest or weed control at 2000 g/ha: Amaranthus retroflexus, 240 h
Method in brief: (§2)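 Pre: seeded sandy loam, directed soil spray, compound in non-phytotoxic solvent + surfactant. Post: 1–2-leaf plants (2–10 cm), sprayed to runoff. Greenhouse ~10 d; visual injury vs untreated, 0–100 scale.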

Surinam grass = experiment: Test C pre-/postemergence herbicide test; format: in vivo, Urochloa decumbens; conditions: for Surinam Grass plant response rating: Preemergence, scale 0 to 100, 0 no effect, 100 complete control
Method in brief: as §1

giant foxtail [2] = experiment: Test A pre-/postemergence herbicide test; format: in vivo, Setaria faberi; conditions: for pest or weed control at 500 g/ha / pest or weed control at 2000 g/ha: Setaria faberi, 240 h
Method in brief: as §2

kochia = experiment: Test C pre-/postemergence herbicide test; format: in vivo, Kochia scoparia; conditions: for Kochia plant response rating: Preemergence, scale 0 to 100, 0 no effect, 100 complete control
Method in brief: as §1

johnsongrass = experiment: Test C pre-/postemergence herbicide test; format: in vivo, Sorghum halepense; conditions: for Johnsongrass plant response rating: Preemergence, scale 0 to 100, 0 no effect, 100 complete control
Method in brief: as §1

yellow nutsedge = experiment: Test C pre-/postemergence herbicide test; format: in vivo, Cyperus esculentus
Method in brief: as §1

large crabgrass = experiment: Test A pre-/postemergence herbicide test; format: in vivo, Digitaria sanguinalis; conditions: for pest or weed control at 500 g/ha / pest or weed control at 2000 g/ha: Digitaria sanguinalis, 240 h
Method in brief: as §2

rice = experiment: Test C flooded paddy test; format: in vivo, Oryza sativa; conditions: Oryza sativa
Method in brief: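 Postemergence sprays applied to plants 2 to 18 cm tall (1- to 4-leaf stage); paddy species grown to 2-leaf stage under flooding. After 12 to 14 days in greenhouse, visual rating versus untreated controls on 0–100 scale (0 no effect, 100 complete control).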

[3] = 62 g ai/ha, preemergence, scale 0 to 100
[4] = 125 g ai/ha, scale 0 (no effect) to 100 (complete control), visual, 12 to 14 days, preemergence
[5] = 250 g ai/ha, scale 0-100, preemergence
[6] = Postemergence, 500 g ai/ha, 0 to 100 scale, 0 no effect, 100 complete control
[7] = Postemergence, 2000 g ai/ha, 0 to 100 scale, 0 no effect, 100 complete control
[8] = Preemergence, 2000 g ai/ha, visual rating, 0 to 100 scale (0 no effect, 100 complete control)
[9] = preemergence, 500 g ai/ha, visual injury, 0 to 100 scale (0 no effect, 100 complete control)
[10] = 500 g ai/ha, scale 0 to 100 (0 no effect, 100 complete control), visual, 12 to 14 days, preemergence

SMILES: CCNC(=O)c1ccc(F)c(NC(=O)c2cc(C(C)(C)C)nn2CC)c1 [Compound 2, 3-(1,1-dimethylethyl)-1-ethyl-N-[5-[(ethylamino)carbonyl]-2-fluorophenyl]-1H-pyrazole-5-carboxamide]
- Plant response rating (0 = no effect, 100 = complete control), Foxtail, Giant (giant foxtail [1]; 62 g ai/ha, preemergence): 80
- Foxtail, Giant plant response rating (giant foxtail [1]; 500 g ai/ha): 100
- pest or weed control at 125 g/ha (giant foxtail [1]; Setaria faberi, pre-emergence, 312 h, 125 g ai/ha, scale 0-100, read-out: Plant response rating, Foxtail, Giant): 100%
- pest or weed control at 250 g/ha (giant foxtail [1]; Setaria faberi, pre-emergence, 312 h, 250 g ai/ha, scale 0 to 100 (0 no effect, 100 complete control), visual, 12 to 14 days, read-out: Plant response rating, Foxtail, Giant): 100%
- pest or weed control at 500 g/ha (redroot pigweed; post-emergence, Postemergence, 500 g ai/ha, 0 to 100 scale, 0 no effect, 100 complete control, read-out: Plant response rating, Pigweed): 100%
- pest or weed control at 2000 g/ha (redroot pigweed; post-emergence, Postemergence, 2000 g ai/ha, 0 to 100 scale, 0 no effect, 100 complete control, read-out: Plant response rating, Pigweed): 100%
- pest or weed control at 500 g/ha (redroot pigweed; pre-emergence, Preemergence, 500 g ai/ha, visual rating, 0 to 100 scale (0 no effect, 100 complete control), read-out: Pigweed plant response rating): 100%
- pest or weed control at 2000 g/ha (redroot pigweed; pre-emergence, Preemergence, 2000 g ai/ha, 0 to 100 scale, 0 no effect, 100 complete control, read-out: Pigweed plant response rating): 100%
- Plant response rating (0 = no effect, 100 = complete control), Surinam Grass (Surinam grass; 62 g ai/ha, preemergence): 90
- Surinam Grass plant response rating (Surinam grass; 500 g ai/ha): 100
- pest or weed control at 250 g/ha (Surinam grass; Urochloa decumbens, pre-emergence, 312 h, 250 g ai/ha, scale 0 to 100 (0 no effect, 100 complete control), visual, 12 to 14 days, read-out: Plant response rating, Surinam Grass): 100%
- pest or weed control at 500 g/ha (giant foxtail [2]; post-emergence, Postemergence, 500 g ai/ha, 0 to 100 scale, 0 no effect, 100 complete control, read-out: Plant response rating, Foxtail, Giant): 95%
- pest or weed control at 2000 g/ha (giant foxtail [2]; post-emergence, Postemergence, 2000 g ai/ha, 0 to 100 scale, 0 no effect, 100 complete control, read-out: Plant response rating, Foxtail, Giant): 100%
- pest or weed control at 500 g/ha (giant foxtail [2]; pre-emergence, Preemergence, 500 g ai/ha, visual rating, 0 to 100 scale (0 no effect, 100 complete control), read-out: Foxtail, Giant plant response rating): 100%
- pest or weed control at 2000 g/ha (giant foxtail [2]; pre-emergence, Preemergence, 2000 g ai/ha, 0 to 100 scale, 0 no effect, 100 complete control, read-out: Foxtail, Giant plant response rating): 100%
- Plant response rating (0 = no effect, 100 = complete control), Kochia (kochia; 62 g ai/ha, preemergence): 100
- pest or weed control at 125 g/ha (kochia; Bassia scoparia, pre-emergence, 125 g ai/ha, scale 0-100, read-out: Plant response rating, Kochia): 100%
- pest or weed control at 250 g/ha (kochia; Bassia scoparia, pre-emergence, 250 g ai/ha, scale 0 to 100 (0 no effect, 100 complete control), visual, 12 to 14 days, read-out: Plant response rating, Kochia): 100%
- Kochia plant response rating (kochia; 500 g ai/ha): 100
- Plant response rating (0 = no effect, 100 = complete control), Johnsongrass (johnsongrass; 62 g ai/ha, preemergence): 70
- Johnsongrass plant response rating (johnsongrass; 500 g ai/ha): 100
- pest or weed control at 125 g/ha (johnsongrass; Sorghum halepense, pre-emergence, 125 g ai/ha, scale 0-100, read-out: Plant response rating, Johnsongrass): 90%
- pest or weed control at 250 g/ha (johnsongrass; Sorghum halepense, pre-emergence, 250 g ai/ha, scale 0 to 100 (0 no effect, 100 complete control), visual, 12 to 14 days, read-out: Plant response rating, Johnsongrass): 100%
- Plant response rating (0 = no effect, 100 = complete control), Nutsedge, Yellow (yellow nutsedge; 62 g ai/ha, preemergence): 30
- pest or weed control at 250 g/ha (yellow nutsedge; Cyperus, pre-emergence, 250 g ai/ha, scale 0 to 100 (0 no effect, 100 complete control), visual, 12 to 14 days, read-out: Plant response rating, Nutsedge, Yellow): 90%
- pest or weed control at 500 g/ha (large crabgrass; post-emergence, Postemergence, 500 g ai/ha, 0 to 100 scale, 0 no effect, 100 complete control, read-out: Plant response rating, Crabgrass, Large): 85%
- pest or weed control at 2000 g/ha (large crabgrass; post-emergence, Postemergence, 2000 g ai/ha, 0 to 100 scale, 0 no effect, 100 complete control, read-out: Plant response rating, Crabgrass, Large): 100%
- pest or weed control at 500 g/ha (large crabgrass; pre-emergence, Preemergence, 500 g ai/ha, visual rating, 0 to 100 scale (0 no effect, 100 complete control), read-out: Crabgrass, Large plant response rating): 100%
- pest or weed control at 2000 g/ha (large crabgrass; pre-emergence, Preemergence, 2000 g ai/ha, 0 to 100 scale, 0 no effect, 100 complete control, read-out: Crabgrass, Large plant response rating): 100%
- plant injury at 62 g/ha (rice; 62 g ai/ha, scale 0 to 100 (0 no effect, 100 complete control), read-out: Rice plant response rating): 50%
- plant injury at 125 g/ha (rice; 125 g ai/ha, scale of 0 to 100, 0 is no effect, 100 is complete control, read-out: Rice plant response rating): 50%
- plant injury at 250 g/ha (rice; 250 g ai/ha, visual rating after 12 to 14 days, scale 0 to 100 (0 no effect, 100 complete control), read-out: Plant response rating, Rice): 65%
- plant injury at 500 g/ha (rice; 500 g ai/ha, visual rating after 12 to 14 days, scale 0 to 100 (0 no effect, 100 complete control), read-out: Plant response rating, Rice): 85%

SMILES: CCNC(=O)c1cccc(NC(=O)c2sc(C(C)(C)C)nc2C)c1 [Compound 198]
- Plant response rating, Foxtail, Giant (giant foxtail [1]; [3]): 0
- Plant response rating, Foxtail, Giant (giant foxtail [1]; [4]): 10
- Plant response rating, Foxtail, Giant (giant foxtail [1]; [5]): 60
- Foxtail, Giant plant response rating (giant foxtail [1]; 500 g ai/ha): 100
- Pigweed plant response rating (redroot pigweed; [6]): 55
- Plant response rating, Pigweed (redroot pigweed; [7]): 75
- Pigweed plant response rating (redroot pigweed; [8]): 100
- Pigweed plant response rating (redroot pigweed; [9]): 95
- Plant response rating, Surinam Grass (Surinam grass; [3]): 0
- Plant response rating, Surinam Grass (Surinam grass; [4]): 10
- Plant response rating, Surinam Grass (Surinam grass; [5]): 30
- Surinam Grass plant response rating (Surinam grass; 500 g ai/ha): 100
- Foxtail, Giant plant response rating (giant foxtail [2]; [6]): 30
- Plant response rating, Foxtail, Giant (giant foxtail [2]; [7]): 65
- Foxtail, Giant plant response rating (giant foxtail [2]; [8]): 95
- Foxtail, Giant plant response rating (giant foxtail [2]; [9]): 90
- Plant response rating, Kochia (kochia; [3]): 50
- Plant response rating, Kochia (kochia; [4]): 80
- Plant response rating, Kochia (kochia; [5]): 100
- Kochia plant response rating (kochia; 500 g ai/ha): 100
- Plant response rating, Johnsongrass (johnsongrass; [3]): 0
- Plant response rating, Johnsongrass (johnsongrass; [4]): 30
- Plant response rating, Johnsongrass (johnsongrass; [5]): 60
- Johnsongrass plant response rating (johnsongrass; 500 g ai/ha): 95
- Plant response rating, Nutsedge, Yellow (yellow nutsedge; [3]): 0
- Plant response rating, Nutsedge, Yellow (yellow nutsedge; [4]): 0
- Plant response rating, Nutsedge, Yellow (yellow nutsedge; [5]): 0
- Nutsedge, Yellow plant response rating (yellow nutsedge; Preemergence, 500 g ai/ha, scale 0 to 100, 0 no effect, 100 complete control): 5
- Crabgrass, Large plant response rating (large crabgrass; [6]): 20
- Plant response rating, Crabgrass, Large (large crabgrass; [7]): 65
- Crabgrass, Large plant response rating (large crabgrass; [8]): 90
- Crabgrass, Large plant response rating (large crabgrass; [9]): 80

SMILES: CCNC(=O)c1cccc(NC(=O)c2sc(C(C)(C)C)nc2CC)n1 [Compound 213]
- Plant response rating, Foxtail, Giant (giant foxtail [1]; [3]): 30
- Plant response rating, Foxtail, Giant (giant foxtail [1]; [4]): 50
- Plant response rating, Foxtail, Giant (giant foxtail [1]; [5]): 95
- Plant response rating, Foxtail, Giant (giant foxtail [1]; [10]): 100
- Pigweed plant response rating (redroot pigweed; [6]): 30
- Plant response rating, Pigweed (redroot pigweed; [7]): 40
- Pigweed plant response rating (redroot pigweed; [8]): 95
- Pigweed plant response rating (redroot pigweed; [9]): 75
- Plant response rating, Surinam Grass (Surinam grass; [3]): 0
- Plant response rating, Surinam Grass (Surinam grass; [4]): 0
- Plant response rating, Surinam Grass (Surinam grass; [5]): 20
- Plant response rating, Surinam Grass (Surinam grass; [10]): 60
- Foxtail, Giant plant response rating (giant foxtail [2]; [6]): 20
- Plant response rating, Foxtail, Giant (giant foxtail [2]; [7]): 25
- Foxtail, Giant plant response rating (giant foxtail [2]; [8]): 85
- Foxtail, Giant plant response rating (giant foxtail [2]; [9]): 60
- Plant response rating, Kochia (kochia; [4]): 85
- Plant response rating, Kochia (kochia; [5]): 100
- Plant response rating, Kochia (kochia; [10]): 100
- Plant response rating, Johnsongrass (johnsongrass; [3]): 0
- Plant response rating, Johnsongrass (johnsongrass; [4]): 55
- Plant response rating, Johnsongrass (johnsongrass; [5]): 60
- Plant response rating, Johnsongrass (johnsongrass; [10]): 80
- Plant response rating, Nutsedge, Yellow (yellow nutsedge; [3]): 0
- Plant response rating, Nutsedge, Yellow (yellow nutsedge; [4]): 0
- Plant response rating, Nutsedge, Yellow (yellow nutsedge; [5]): 0
- Plant response rating, Nutsedge, Yellow (yellow nutsedge; [10]): 0
- Crabgrass, Large plant response rating (large crabgrass; [6]): 20
- Plant response rating, Crabgrass, Large (large crabgrass; [7]): 30
- Crabgrass, Large plant response rating (large crabgrass; [8]): 95
- Crabgrass, Large plant response rating (large crabgrass; [9]): 55
